Assay results from the kinase profiling compilation of Christmann-Franck et al. (2016).
Values belong to the molecule of their own block, whether it stands above or below them.

Key:
Experiment in all cases: radiometric filter-binding kinase assay
[1] = molecular target: PRKACA (human) (UniProt P17612)
[2] = molecular target: MAP2K1 (human) (UniProt Q02750)
[3] = molecular target: EPHB3 (human) (UniProt P54753)
[4] = molecular target: DYRK1A (human) (UniProt Q13627)
[5] = molecular target: MKNK1 (human) (UniProt Q9BUB5)
[6] = molecular target: INSRR (human) (UniProt P14616)
Sequence of INSRR (human) (P14616 whole entry, looked up): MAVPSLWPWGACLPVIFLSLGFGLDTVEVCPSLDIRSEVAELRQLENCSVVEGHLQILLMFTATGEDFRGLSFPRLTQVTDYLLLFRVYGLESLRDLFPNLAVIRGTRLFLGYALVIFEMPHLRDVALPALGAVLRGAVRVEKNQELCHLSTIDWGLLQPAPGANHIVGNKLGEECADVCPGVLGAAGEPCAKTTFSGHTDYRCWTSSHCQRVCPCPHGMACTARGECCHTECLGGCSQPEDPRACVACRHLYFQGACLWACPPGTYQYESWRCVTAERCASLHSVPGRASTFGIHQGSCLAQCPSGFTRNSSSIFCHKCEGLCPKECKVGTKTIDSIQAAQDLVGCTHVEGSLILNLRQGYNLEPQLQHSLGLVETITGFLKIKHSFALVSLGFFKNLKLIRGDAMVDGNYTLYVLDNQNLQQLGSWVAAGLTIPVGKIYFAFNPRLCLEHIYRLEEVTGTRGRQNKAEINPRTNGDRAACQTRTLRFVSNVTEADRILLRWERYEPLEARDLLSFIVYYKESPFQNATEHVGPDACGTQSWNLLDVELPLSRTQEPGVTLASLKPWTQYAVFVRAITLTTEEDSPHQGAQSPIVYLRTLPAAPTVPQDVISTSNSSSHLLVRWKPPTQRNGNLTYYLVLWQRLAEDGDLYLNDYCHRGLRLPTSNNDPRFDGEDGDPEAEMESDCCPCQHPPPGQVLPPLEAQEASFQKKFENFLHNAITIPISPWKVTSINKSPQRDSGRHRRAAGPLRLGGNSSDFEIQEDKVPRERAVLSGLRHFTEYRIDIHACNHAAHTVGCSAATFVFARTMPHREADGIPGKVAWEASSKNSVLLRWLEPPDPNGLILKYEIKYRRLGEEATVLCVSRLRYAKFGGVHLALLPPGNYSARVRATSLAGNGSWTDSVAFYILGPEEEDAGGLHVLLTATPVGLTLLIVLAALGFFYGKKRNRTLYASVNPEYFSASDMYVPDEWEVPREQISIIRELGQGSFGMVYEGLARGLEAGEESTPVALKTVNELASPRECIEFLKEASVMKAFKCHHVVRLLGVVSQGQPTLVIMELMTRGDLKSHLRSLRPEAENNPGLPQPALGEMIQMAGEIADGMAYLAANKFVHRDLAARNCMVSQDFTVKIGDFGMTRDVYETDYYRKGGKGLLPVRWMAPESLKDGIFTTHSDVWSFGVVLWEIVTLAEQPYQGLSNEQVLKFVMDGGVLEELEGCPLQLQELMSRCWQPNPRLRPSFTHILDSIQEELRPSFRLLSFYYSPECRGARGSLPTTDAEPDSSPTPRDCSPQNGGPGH

[7] = molecular target: INSR (human) (UniProt P06213)
Sequence of INSR (human) (P06213 whole entry, looked up): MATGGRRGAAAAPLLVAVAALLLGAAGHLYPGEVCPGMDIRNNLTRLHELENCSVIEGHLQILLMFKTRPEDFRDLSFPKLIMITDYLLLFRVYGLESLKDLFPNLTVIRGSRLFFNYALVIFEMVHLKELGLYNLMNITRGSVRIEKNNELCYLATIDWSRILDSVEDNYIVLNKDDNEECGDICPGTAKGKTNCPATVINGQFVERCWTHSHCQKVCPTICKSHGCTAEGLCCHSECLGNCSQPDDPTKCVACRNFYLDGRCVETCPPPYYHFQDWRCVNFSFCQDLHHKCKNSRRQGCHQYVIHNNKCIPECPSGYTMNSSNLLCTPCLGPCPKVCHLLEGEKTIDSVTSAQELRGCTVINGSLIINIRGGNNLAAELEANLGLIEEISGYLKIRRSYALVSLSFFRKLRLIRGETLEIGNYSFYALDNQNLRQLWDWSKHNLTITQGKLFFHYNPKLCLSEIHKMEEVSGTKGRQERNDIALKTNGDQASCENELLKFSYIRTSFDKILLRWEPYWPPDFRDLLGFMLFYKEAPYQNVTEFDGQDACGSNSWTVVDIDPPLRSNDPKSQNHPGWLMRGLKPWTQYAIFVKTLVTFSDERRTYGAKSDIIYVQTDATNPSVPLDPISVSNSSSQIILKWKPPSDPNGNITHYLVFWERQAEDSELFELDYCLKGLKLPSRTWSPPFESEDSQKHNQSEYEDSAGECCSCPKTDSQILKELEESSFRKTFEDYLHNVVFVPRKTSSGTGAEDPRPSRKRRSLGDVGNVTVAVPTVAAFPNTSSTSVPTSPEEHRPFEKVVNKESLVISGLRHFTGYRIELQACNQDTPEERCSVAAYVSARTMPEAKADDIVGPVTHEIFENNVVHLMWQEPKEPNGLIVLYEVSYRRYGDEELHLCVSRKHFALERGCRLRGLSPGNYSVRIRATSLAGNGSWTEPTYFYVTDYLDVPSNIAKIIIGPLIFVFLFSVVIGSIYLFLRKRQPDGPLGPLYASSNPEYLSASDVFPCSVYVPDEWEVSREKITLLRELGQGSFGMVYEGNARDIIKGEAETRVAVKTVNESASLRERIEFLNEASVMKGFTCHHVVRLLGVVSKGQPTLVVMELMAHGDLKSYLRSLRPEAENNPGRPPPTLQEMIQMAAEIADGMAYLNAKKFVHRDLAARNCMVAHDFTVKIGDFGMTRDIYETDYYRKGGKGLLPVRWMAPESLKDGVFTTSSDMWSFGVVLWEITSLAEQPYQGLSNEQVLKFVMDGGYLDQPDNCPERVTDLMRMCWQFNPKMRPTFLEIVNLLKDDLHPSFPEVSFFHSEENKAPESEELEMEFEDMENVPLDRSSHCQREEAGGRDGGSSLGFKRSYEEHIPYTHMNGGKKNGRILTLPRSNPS

[8] = system: LCK (mouse); settings: accession and sequence are those of the human protein
[9] = molecular target: SYK (human) (UniProt P43405)
[10] = molecular target: MINK1 (human) (UniProt Q8N4C8)
[11] = molecular target: CAMKK2 (human) (UniProt Q96RR4)
[12] = molecular target: JAK2 JH1 JH2 (human) (UniProt O60674)
[13] = molecular target: MAP3K11 (human) (UniProt Q16584)
[14] = molecular target: CSNK2A1 (human) (UniProt P68400)
[15] = system: PRKAA1 or PRKAA2 (rat); settings: accession and sequence are those of the human protein
[16] = molecular target: NTRK1 (human) (UniProt P04629)
[17] = molecular target: MAPK13 (human) (UniProt O15264)
[18] = molecular target: PAK4 (human) (UniProt O96013)
[19] = molecular target: IGF1R (human) (UniProt P08069)
Sequence of IGF1R (human) (P08069 whole entry, looked up): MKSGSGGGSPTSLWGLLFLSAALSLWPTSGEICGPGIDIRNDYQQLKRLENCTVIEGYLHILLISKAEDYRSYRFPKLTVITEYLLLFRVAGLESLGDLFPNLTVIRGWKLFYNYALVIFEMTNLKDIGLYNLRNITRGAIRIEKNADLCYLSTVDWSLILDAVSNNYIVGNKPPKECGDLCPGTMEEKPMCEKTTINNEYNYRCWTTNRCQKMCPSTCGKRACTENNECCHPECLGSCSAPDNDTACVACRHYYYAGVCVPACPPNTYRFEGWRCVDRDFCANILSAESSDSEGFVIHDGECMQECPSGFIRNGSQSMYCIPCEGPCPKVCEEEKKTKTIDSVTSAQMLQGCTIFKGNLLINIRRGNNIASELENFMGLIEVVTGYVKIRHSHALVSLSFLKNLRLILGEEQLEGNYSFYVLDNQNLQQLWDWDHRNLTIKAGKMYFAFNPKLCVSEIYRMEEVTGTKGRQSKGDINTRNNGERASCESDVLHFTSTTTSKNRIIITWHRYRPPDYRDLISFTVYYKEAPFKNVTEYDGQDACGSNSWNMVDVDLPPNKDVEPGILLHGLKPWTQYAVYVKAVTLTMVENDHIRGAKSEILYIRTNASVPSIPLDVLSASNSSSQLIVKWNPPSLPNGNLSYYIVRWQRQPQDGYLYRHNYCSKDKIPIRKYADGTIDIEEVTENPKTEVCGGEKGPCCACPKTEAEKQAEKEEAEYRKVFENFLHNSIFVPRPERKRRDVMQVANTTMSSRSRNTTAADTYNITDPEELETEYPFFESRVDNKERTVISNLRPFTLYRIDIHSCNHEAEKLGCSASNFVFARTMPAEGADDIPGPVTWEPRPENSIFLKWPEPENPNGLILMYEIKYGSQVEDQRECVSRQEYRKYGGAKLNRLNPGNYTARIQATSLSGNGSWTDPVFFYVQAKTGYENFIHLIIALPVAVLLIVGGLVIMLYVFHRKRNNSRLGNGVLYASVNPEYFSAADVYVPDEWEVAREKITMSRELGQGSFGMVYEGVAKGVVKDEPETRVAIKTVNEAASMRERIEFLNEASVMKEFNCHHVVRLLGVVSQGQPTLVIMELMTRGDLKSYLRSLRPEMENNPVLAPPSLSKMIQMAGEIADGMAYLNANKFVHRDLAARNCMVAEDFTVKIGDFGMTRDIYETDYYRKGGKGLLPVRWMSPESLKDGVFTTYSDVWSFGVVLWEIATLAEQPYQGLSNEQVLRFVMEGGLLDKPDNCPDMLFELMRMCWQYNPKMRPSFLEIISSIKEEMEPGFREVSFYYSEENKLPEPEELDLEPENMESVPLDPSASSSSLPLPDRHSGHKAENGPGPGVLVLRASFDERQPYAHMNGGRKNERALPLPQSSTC

[20] = molecular target: MAP3K9 (human) (UniProt P80192)
[21] = molecular target: PIM2 (human) (UniProt Q9P1W9)
Sequence of PIM2 (human) (Q9P1W9 whole entry, looked up): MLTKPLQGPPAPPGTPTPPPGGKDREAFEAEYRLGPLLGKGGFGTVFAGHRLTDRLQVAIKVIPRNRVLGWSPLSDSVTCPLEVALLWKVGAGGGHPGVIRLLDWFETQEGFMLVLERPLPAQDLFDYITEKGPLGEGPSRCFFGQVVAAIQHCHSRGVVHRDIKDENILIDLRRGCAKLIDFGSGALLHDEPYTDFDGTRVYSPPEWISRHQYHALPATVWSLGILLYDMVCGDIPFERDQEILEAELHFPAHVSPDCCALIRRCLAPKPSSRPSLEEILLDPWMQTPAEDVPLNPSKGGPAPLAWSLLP

[22] = molecular target: CaMK1 (human) (UniProt Q14012)
[23] = molecular target: SRC (human) (UniProt P12931)
[24] = molecular target: CDK2 CCNA2 (human) (UniProt P20248+P24941)
[25] = molecular target: NUAK1 (human) (UniProt O60285)
[26] = molecular target: PRKCZ (human) (UniProt Q05513)
[27] = molecular target: MARK4 (human) (UniProt Q96L34)
[28] = molecular target: MARK3 (human) (UniProt P27448)
Sequence of MARK3 (human) (P27448 whole entry, looked up): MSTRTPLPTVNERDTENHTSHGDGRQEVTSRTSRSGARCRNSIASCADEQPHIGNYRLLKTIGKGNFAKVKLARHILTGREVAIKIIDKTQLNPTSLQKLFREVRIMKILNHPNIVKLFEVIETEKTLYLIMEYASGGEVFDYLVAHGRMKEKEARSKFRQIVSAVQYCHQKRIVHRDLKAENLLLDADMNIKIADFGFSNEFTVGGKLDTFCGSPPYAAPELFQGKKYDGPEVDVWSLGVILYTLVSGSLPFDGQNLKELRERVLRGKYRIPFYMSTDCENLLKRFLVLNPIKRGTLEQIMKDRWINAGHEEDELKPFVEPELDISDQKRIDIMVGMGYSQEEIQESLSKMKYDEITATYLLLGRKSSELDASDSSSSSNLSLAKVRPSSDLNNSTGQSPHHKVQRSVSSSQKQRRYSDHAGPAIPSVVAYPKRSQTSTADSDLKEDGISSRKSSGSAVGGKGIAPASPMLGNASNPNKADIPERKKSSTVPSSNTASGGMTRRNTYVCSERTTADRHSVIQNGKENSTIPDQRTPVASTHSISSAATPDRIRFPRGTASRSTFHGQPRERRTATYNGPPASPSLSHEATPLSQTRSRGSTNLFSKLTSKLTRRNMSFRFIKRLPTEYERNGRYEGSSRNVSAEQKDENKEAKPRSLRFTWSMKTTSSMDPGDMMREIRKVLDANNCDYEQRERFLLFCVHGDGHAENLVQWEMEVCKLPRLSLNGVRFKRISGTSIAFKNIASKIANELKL

[29] = molecular target: MST4 (human) (UniProt Q9P289)
[30] = molecular target: MAPK10 (human) (UniProt P53779)
[31] = molecular target: CHEK1 (human) (UniProt O14757)
[32] = molecular target: YES1 (human) (UniProt P07947)
[33] = molecular target: PHKG1 (human) (UniProt Q16816)
[34] = molecular target: RIPK2 (human) (UniProt O43353)
[35] = system: AKT2 (human), P31751 [S474D]
[36] = molecular target: AURKB (human) (UniProt Q96GD4)

residual activity ([1]; compound 0.1 µM): 105%
residual activity ([1]; compound 1.0 µM): 109%
residual activity ([1]; compound 10.0 µM): 93%
residual activity ([2]; compound 0.1 µM): 86%
residual activity ([2]; compound 1.0 µM): 77%
residual activity ([2]; compound 10.0 µM): 49%
residual activity ([3]; compound 0.1 µM): 105%
residual activity ([3]; compound 1.0 µM): 124%
residual activity ([3]; compound 10.0 µM): 94%
residual activity ([4]; compound 0.1 µM): 97%
residual activity ([4]; compound 1.0 µM): 63%
residual activity ([4]; compound 10.0 µM): 21%
residual activity ([5]; compound 0.1 µM): 95%
residual activity ([5]; compound 1.0 µM): 38%
residual activity ([5]; compound 10.0 µM): 7%
residual activity ([6]; compound 0.1 µM): 100%
residual activity ([6]; compound 1.0 µM): 107%
residual activity ([6]; compound 10.0 µM): 97%
residual activity ([7]; compound 0.1 µM): 89%
residual activity ([7]; compound 1.0 µM): 86%
residual activity ([7]; compound 10.0 µM): 93%
residual activity ([8]; compound 0.1 µM): 84%
residual activity ([8]; compound 1.0 µM): 30%
residual activity ([8]; compound 10.0 µM): 9%
residual activity ([9]; compound 0.1 µM): 90%
residual activity ([9]; compound 1.0 µM): 104%
residual activity ([9]; compound 10.0 µM): 92%
residual activity ([10]; compound 0.1 µM): 65%
residual activity ([10]; compound 1.0 µM): 13%
residual activity ([10]; compound 10.0 µM): 2%
residual activity ([11]; compound 0.1 µM): 85%
residual activity ([11]; compound 1.0 µM): 99%
residual activity ([11]; compound 10.0 µM): 62%
residual activity ([12]; compound 0.1 µM): 82%
residual activity ([12]; compound 1.0 µM): 87%
residual activity ([12]; compound 10.0 µM): 89%
residual activity ([13]; compound 0.1 µM): 93%
residual activity ([13]; compound 1.0 µM): 86%
residual activity ([13]; compound 10.0 µM): 81%
residual activity ([14]; compound 0.1 µM): 107%
residual activity ([14]; compound 1.0 µM): 110%
residual activity ([14]; compound 10.0 µM): 65%
residual activity ([15]; compound 0.1 µM): 97%
residual activity ([15]; compound 1.0 µM): 61%
residual activity ([15]; compound 10.0 µM): 20%
residual activity ([16]; compound 0.1 µM): 72%
residual activity ([16]; compound 10.0 µM): 71%
residual activity ([17]; compound 0.1 µM): 89%
residual activity ([17]; compound 1.0 µM): 93%
residual activity ([17]; compound 10.0 µM): 50%
residual activity ([18]; compound 0.1 µM): 101%
residual activity ([18]; compound 1.0 µM): 93%
residual activity ([18]; compound 10.0 µM): 74%
residual activity ([19]; compound 0.1 µM): 97%
residual activity ([19]; compound 1.0 µM): 102%
residual activity ([19]; compound 10.0 µM): 99%
residual activity ([20]; compound 1.0 µM): 69%
residual activity ([20]; compound 10.0 µM): 103%
residual activity ([21]; compound 0.1 µM): 99%
residual activity ([21]; compound 1.0 µM): 102%
residual activity ([21]; compound 10.0 µM): 99%
residual activity ([22]; compound 0.1 µM): 81%
residual activity ([22]; compound 1.0 µM): 20%
residual activity ([22]; compound 10.0 µM): 1%
residual activity ([23]; compound 0.1 µM): 106%
residual activity ([23]; compound 1.0 µM): 90%
residual activity ([23]; compound 10.0 µM): 66%
residual activity ([24]; compound 0.1 µM): 66%
residual activity ([24]; compound 1.0 µM): 30%
residual activity ([24]; compound 10.0 µM): 11%
residual activity ([25]; compound 1.0 µM): 17%
residual activity ([25]; compound 10.0 µM): 32%
residual activity ([26]; compound 0.1 µM): 88%
residual activity ([26]; compound 1.0 µM): 109%
residual activity ([26]; compound 10.0 µM): 84%
residual activity ([27]; compound 0.1 µM): 87%
residual activity ([27]; compound 1.0 µM): 46%
residual activity ([27]; compound 10.0 µM): 10%
residual activity ([28]; compound 0.1 µM): 92%
residual activity ([28]; compound 1.0 µM): 40%
residual activity ([28]; compound 10.0 µM): 15%
residual activity ([29]; compound 0.1 µM): 117%
residual activity ([29]; compound 1.0 µM): 107%
residual activity ([29]; compound 10.0 µM): 95%
residual activity ([30]; compound 0.1 µM): 88%
residual activity ([30]; compound 1.0 µM): 79%
residual activity ([30]; compound 10.0 µM): 31%
residual activity ([31]; compound 1.0 µM): 100%
residual activity ([31]; compound 10.0 µM): 70%
residual activity ([32]; compound 0.1 µM): 107%
residual activity ([32]; compound 1.0 µM): 94%
residual activity ([32]; compound 10.0 µM): 76%
residual activity ([33]; compound 0.1 µM): 82%
residual activity ([33]; compound 1.0 µM): 29%
residual activity ([33]; compound 10.0 µM): 5%
residual activity ([34]; compound 0.1 µM): 96%
residual activity ([34]; compound 1.0 µM): 96%
residual activity ([34]; compound 10.0 µM): 79%
residual activity ([35]; compound 0.1 µM): 97%
residual activity ([35]; compound 1.0 µM): 57%
residual activity ([35]; compound 10.0 µM): 3%
residual activity ([36]; compound 0.1 µM): 132%
residual activity ([36]; compound 1.0 µM): 117%
residual activity ([36]; compound 10.0 µM): 115%
SMILES: NC(=O)c1cc(-c2ccnc(NC3CCCCC3)c2)nc(N2CCNCC2)c1

residual activity ([1]; compound 1.0 µM): 100%
residual activity ([1]; compound 10.0 µM): 93%
residual activity ([2]; compound 1.0 µM): 108%
residual activity ([2]; compound 10.0 µM): 107%
residual activity ([3]; compound 1.0 µM): 72%
residual activity ([3]; compound 10.0 µM): 82%
residual activity ([4]; compound 10.0 µM): 82%
residual activity ([5]; compound 1.0 µM): 86%
residual activity ([5]; compound 10.0 µM): 83%
residual activity ([6]; compound 1.0 µM): 91%
residual activity ([6]; compound 10.0 µM): 75%
residual activity ([7]; compound 1.0 µM): 98%
residual activity ([7]; compound 10.0 µM): 94%
residual activity ([8]; compound 1.0 µM): 84%
residual activity ([8]; compound 10.0 µM): 247%
residual activity ([9]; compound 10.0 µM): 85%
residual activity ([10]; compound 1.0 µM): 78%
residual activity ([10]; compound 10.0 µM): 47%
residual activity ([11]; compound 10.0 µM): 115%
residual activity ([12]; compound 1.0 µM): 101%
residual activity ([13]; compound 1.0 µM): 94%
residual activity ([13]; compound 10.0 µM): 87%
residual activity ([14]; compound 1.0 µM): 111%
residual activity ([14]; compound 10.0 µM): 79%
residual activity ([15]; compound 1.0 µM): 99%
residual activity ([15]; compound 10.0 µM): 105%
residual activity ([16]; compound 1.0 µM): 90%
residual activity ([16]; compound 10.0 µM): 90%
residual activity ([17]; compound 1.0 µM): 96%
residual activity ([17]; compound 10.0 µM): 70%
residual activity ([18]; compound 1.0 µM): 84%
residual activity ([18]; compound 10.0 µM): 70%
residual activity ([19]; compound 10.0 µM): 105%
residual activity ([20]; compound 1.0 µM): 99%
residual activity ([20]; compound 10.0 µM): 80%
residual activity ([21]; compound 1.0 µM): 93%
residual activity ([21]; compound 10.0 µM): 98%
residual activity ([22]; compound 1.0 µM): 109%
residual activity ([22]; compound 10.0 µM): 21%
residual activity ([23]; compound 1.0 µM): 103%
residual activity ([23]; compound 10.0 µM): 135%
residual activity ([24]; compound 1.0 µM): 95%
residual activity ([24]; compound 10.0 µM): 95%
residual activity ([25]; compound 1.0 µM): 85%
residual activity ([25]; compound 10.0 µM): 61%
residual activity ([26]; compound 1.0 µM): 94%
residual activity ([26]; compound 10.0 µM): 61%
residual activity ([27]; compound 1.0 µM): 88%
residual activity ([27]; compound 10.0 µM): 102%
residual activity ([28]; compound 1.0 µM): 96%
residual activity ([28]; compound 10.0 µM): 101%
residual activity ([29]; compound 1.0 µM): 80%
residual activity ([29]; compound 10.0 µM): 72%
residual activity ([30]; compound 1.0 µM): 85%
residual activity ([30]; compound 10.0 µM): 86%
residual activity ([31]; compound 1.0 µM): 72%
residual activity ([31]; compound 10.0 µM): 44%
residual activity ([32]; compound 1.0 µM): 85%
residual activity ([32]; compound 10.0 µM): 80%
residual activity ([33]; compound 1.0 µM): 79%
residual activity ([33]; compound 10.0 µM): 72%
residual activity ([34]; compound 1.0 µM): 93%
residual activity ([34]; compound 10.0 µM): 81%
residual activity ([35]; compound 1.0 µM): 87%
residual activity ([35]; compound 10.0 µM): 54%
residual activity ([36]; compound 1.0 µM): 93%
residual activity ([36]; compound 10.0 µM): 88%
SMILES: NCC(=O)Nc1ccc(-n2nc(C(F)(F)F)cc2-c2ccc3c(ccc4ccccc43)c2)cc1
